From ChEMBL document CHEMBL5223063, “Recent advances in urea- and thiourea-containing compounds: focus on innovative approaches in medicinal chemistry and organic synthesis” (RSC Med Chem, 2021) come the findings set out here.

A short description of data set [1]: Induction of anion transport in NaCl loaded POPC liposomes assessed transmembrane permeability by measuring chloride efflux by ion selective electrode.
Data set [2] is described as follows: 1-Octanol/phosphate buffer partition coefficient, logP of the compound at pH 7.40. The class given is physicochemical. To be noted: pH 7.4.
The nature of data set [3]: Permeability coefficient of the compound in human Caco-2 cells. The class given is ADME, cell-based. To be noted: read-out: Kp.
Data set [4] in a line: Dissociation constant, pKa of compound. The class given is physicochemical.
Data set [5] in a line: Oral bioavailability in rat. The settings on record: in vivo. The class given is ADME, organism-based.

With `FC(F)(F)c1cc(NC(=S)Nc2cc(C(F)(F)F)cc(C(F)(F)F)c2)cc(C(F)(F)F)c1`, the EC50 in data set [1] was 0.16 mol%.

Take `Cc1cccc(Nc2ccncc2S(=O)(=O)N/C(=C/[N+](=O)[O-])NC(C)C)c1`: the logD in data set [2] stood at 1.12.

Turning to `COC(=O)C1=C(C)NC(C)=C(C(=O)OC)C1c1cccc(N/C(=N/C#N)NCCCN2CCC(c3cccc(OC)c3)CC2)c1`, the Papp in data set [3] came to 4.3 ×10⁻⁶ cm/s.

`Cc1cccc(Nc2ccncc2S(=O)(=O)NC(=O)NC(C)C)c1` [TORSEMIDE] registered a logD in data set [2] of 0.45. Besides, the pKa in data set [4] came out at 6.68.

`COC(=O)C1=C(C)NC(C)=C(C(=O)OC)C1c1cccc(NC(=O)NCCCN2CCC(c3cccc(OC)c3)CC2)c1` registered a bioavailability in data set [5] of 0.1%. The Papp in data set [3] turned out to be 1.9 ×10⁻⁶ cm/s.

In turn, `Cc1cccc(Nc2ccncc2S(=O)(=O)NC(=NC#N)NC(C)C)c1` returned a logD in data set [2] of 0.86. In data set [4], this compound displayed a pKa of 6.

Regarding `Cc1cccc(Nc2ccncc2S(=O)(=O)NC(=S)NC(C)C)c1`, the pH-dependent lipophilicity (logD) in data set [2] came out at 0.61.

In data set [1], `O=C(Nc1cc(C(F)(F)F)cc(C(F)(F)F)c1)Nc1cc(C(F)(F)F)cc(C(F)(F)F)c1` showed an EC50 of 0.3 mol%.

In the case of `O=c1c(Nc2cc(C(F)(F)F)cc(C(F)(F)F)c2)c(Nc2cc(C(F)(F)F)cc(C(F)(F)F)c2)c1=O`, in data set [1], the EC50 was determined as 0.01 mol%.
